One experiment addresses human CB2 receptors (Homo sapiens (Human), UniProt P34972). Description: cAMP assay, CHO cells expressing human CB2 receptors. In kind it is cell-based. In a few lines: (§1)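 CHO cells, KRB buffer + 1 mM IBMX, 30 min 30 °C preincubation; compound 30 min 30 °C; lysis + TR-FRET cAMP detection, 2 h RT; cAMP from standard curve (10 μM–0.13 nM); EC50.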
Background: Cyclic AMP is a second messenger, typically raised through Gs and lowered through Gi signalling.

A further experiment has as its target human CB1 receptors (Homo sapiens (Human), UniProt P21554). Description: cAMP assay, CHO cells expressing human CB1 receptors. In kind it is cell-based. The gist of the method: as §1
The mark [1] stands for this setting: CHO cells expressing human CB2, cAMP, read-out: human CB2 EC50.
The mark [2] stands for this setting: CHO cells expressing human CB1, cAMP, read-out: human CB1 EC50.

Molecules are shown by their SMILES. Read-outs that look alike come from different tables or passages of the source.

human CB2 receptors, sequence (P34972 whole entry): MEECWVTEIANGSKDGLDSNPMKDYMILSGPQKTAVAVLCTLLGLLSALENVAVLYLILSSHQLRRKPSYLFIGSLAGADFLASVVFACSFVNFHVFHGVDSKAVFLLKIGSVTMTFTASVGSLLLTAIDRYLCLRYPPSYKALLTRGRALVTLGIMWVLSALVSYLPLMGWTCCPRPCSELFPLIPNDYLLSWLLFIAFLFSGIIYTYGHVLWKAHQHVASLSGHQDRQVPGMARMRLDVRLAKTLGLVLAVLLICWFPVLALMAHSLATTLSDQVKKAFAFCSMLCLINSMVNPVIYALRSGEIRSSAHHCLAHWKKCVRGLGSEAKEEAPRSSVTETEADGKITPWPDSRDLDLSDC
human CB1 receptors, sequence (P21554 whole entry): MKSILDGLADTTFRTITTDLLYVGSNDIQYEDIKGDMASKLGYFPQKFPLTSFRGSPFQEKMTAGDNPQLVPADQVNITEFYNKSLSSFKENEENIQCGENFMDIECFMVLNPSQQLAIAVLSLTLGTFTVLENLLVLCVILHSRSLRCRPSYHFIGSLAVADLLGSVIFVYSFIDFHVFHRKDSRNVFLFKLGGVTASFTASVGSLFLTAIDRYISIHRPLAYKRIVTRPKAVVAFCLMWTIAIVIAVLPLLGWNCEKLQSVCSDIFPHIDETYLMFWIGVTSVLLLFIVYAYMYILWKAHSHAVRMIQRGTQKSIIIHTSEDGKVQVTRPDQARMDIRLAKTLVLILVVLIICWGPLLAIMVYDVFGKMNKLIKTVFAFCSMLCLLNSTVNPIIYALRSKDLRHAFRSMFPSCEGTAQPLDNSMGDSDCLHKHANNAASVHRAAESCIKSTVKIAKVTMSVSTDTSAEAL

On to `Cc1nc([C@H](NC(=O)c2cccc(-c3ccc(F)c(Cl)c3)n2)C2CC2)no1` [Example 261, 6-(3-Chloro-4-fluoro-phenyl)-pyridine-2-carboxylic acid [(+)-cyclopropyl-(5-methyl-[1,2,4]oxadiazol-3-yl)-methyl]-amide], for which the half-maximal effective concentration (EC50) (as a rule, the midpoint of the concentration-response curve) came out at 10.1 nM on human CB2 receptors (setting [1]) and 260 nM on human CB1 receptors (setting [2]).

With `CCC(CC)(NC(=O)c1ccc(C(F)(F)F)c(OCC2CCOCC2)n1)C(=O)N(C)C` [Example 262, 6-(Tetrahydro-pyran-4-ylmethoxy)-5-trifluoromethyl-pyridine-2-carboxylic acid (1-dimethylcarbamoyl-1-ethyl-propyl)-amide], the EC50 at human CB2 receptors (setting [1]) is 74.8 nM; at human CB1 receptors (setting [2]) it was greater than 10000 nM.

`CCOC(=O)C(CC)(CC)NC(=O)c1ccc(N2CCC23COC3)c(OCC2CC2)n1` [Example 263, 2-{[6-Cyclopropylmethoxy-5-(6-oxa-1-aza-spiro[3.3]hept-1-yl)-pyridine-2-carbonyl]-amino}-2-ethyl-butyric acid ethyl ester]: the 50% effective concentration (EC50) on human CB2 receptors (setting [1]) is 4.5 nM; at human CB1 receptors (setting [2]) it was greater than 10000 nM.

`CCC(CC)(NC(=O)c1ccc(C(F)(F)F)c(OCC2CCCO2)n1)C(=O)N(C)C` (stereo not shown) [Example 264, 6-(Tetrahydro-furan-2-ylmethoxy)-5-trifluoromethyl-pyridine-2-carboxylic acid (1-dimethylcarbamoyl-1-ethyl-propyl)-amide]: the EC50 came to 2.7 nM on human CB2 receptors (setting [1]) and 602 nM on human CB1 receptors (setting [2]).

Regarding `CCOC(=O)C(CC)(CC)NC(=O)c1ccc(Br)c(OCC2CC2)n1` [Example 265, 2-[(5-Bromo-6-cyclopropylmethoxy-pyridine-2-carbonyl)-amino]-2-ethyl-butyric acid ethyl ester], the concentration giving a half-maximal response (EC50) at human CB2 receptors (setting [1]) is 2.8 nM; at human CB1 receptors (setting [2]), greater than 10000 nM.

With `CCOC(=O)C(CC)(CC)NC(=O)c1ccc(N2CC(F)(F)C2)c(OCC2CC2)n1` [Example 266, 2-{[6-Cyclopropylmethoxy-5-(3,3-difluoro-azetidin-1-yl)-pyridine-2-carbonyl]-amino}-2-ethyl-butyric acid ethyl ester], the concentration giving a half-maximal response (EC50) was found to be 2 nM at human CB2 receptors (setting [1]) and 1300 nM on human CB1 receptors (setting [2]).

Take `Cc1nc(C(C)(C)NC(=O)c2cccc(-c3ccc(Cl)c(F)c3)n2)no1` [Example 267, 6-(4-Chloro-3-fluoro-phenyl)-pyridine-2-carboxylic acid [1-methyl-1-(5-methyl-[1,2,4]oxadiazol-3-yl)-ethyl]-amide]: the EC50 at human CB2 receptors (setting [1]) is 26.4 nM; at human CB1 receptors (setting [2]), greater than 10000 nM.

`Cc1nc(C(C)(C)NC(=O)c2cccc(-c3ccc(F)c(Cl)c3)n2)no1` [Example 268, 6-(3-Chloro-4-fluoro-phenyl)-pyridine-2-carboxylic acid [1-methyl-1-(5-methyl-[1,2,4]oxadiazol-3-yl)-ethyl]-amide]: the half-maximal effective concentration (EC50) came to 8.7 nM at human CB2 receptors (setting [1]) and 337 nM on human CB1 receptors (setting [2]).

With `CCC(CC)(NC(=O)c1ccc(N2CC(F)(F)C2=O)c(OCC2CC2)n1)C(=O)OC` [Example 269, 2-{[6-Cyclopropylmethoxy-5-(3,3-difluoro-2-oxo-azetidin-1-yl)-pyridine-2-carbonyl]-amino}-2-ethyl-butyric acid methyl ester], the 50% effective concentration (EC50) at human CB2 receptors (setting [1]) was 47.3 nM; at human CB1 receptors (setting [2]) it was greater than 10000 nM.

Turning to `COC(=O)[C@H](CC(C)C)NC(=O)c1ccc(C2CC2)c(OCC2CC2)n1` [Example 270, (S)-2-[(5-Cyclopropyl-6-cyclopropylmethoxy-pyridine-2-carbonyl)-amino]-4-methyl-pentanoic acid methyl ester], the EC50 came to 1.3 nM at human CB2 receptors (setting [1]) and 91.4 nM at human CB1 receptors (setting [2]).

For the compound `CC(C)CC(C#N)NC(=O)c1ccc(N2CC(F)(F)C2)c(OCC2CC2)n1` (stereo not shown) [Example 271, 6-Cyclopropylmethoxy-5-(3,3-difluoro-azetidin-1-yl)-pyridine-2-carboxylic acid (1-cyano-3-methyl-butyl)-amide], the EC50 is 7.9 nM at human CB2 receptors (setting [1]) and greater than 10000 nM at human CB1 receptors (setting [2]).

In the case of `Cc1nc(C(CC(C)C)NC(=O)c2ccc(N3CC(F)(F)C3)c(OCC3CC3)n2)no1` (stereo not shown) [Example 272, 6-Cyclopropylmethoxy-5-(3,3-difluoro-azetidin-1-yl)-pyridine-2-carboxylic acid [3-methyl-1-(5-methyl-[1,2,4]oxadiazol-3-yl)-butyl]-amide], the 50% effective concentration (EC50) was 4.3 nM on human CB2 receptors and greater than 10000 nM on human CB1 receptors.

For `CC(C)CC(C)(CO)NC(=O)c1ccc(N2CC(F)(F)C2)c(OCC2CC2)n1` (stereo not shown) [Example 273, 6-Cyclopropylmethoxy-5-(3,3-difluoro-azetidin-1-yl)-pyridine-2-carboxylic acid (1-hydroxymethyl-1,3-dimethyl-butyl)-amide], the EC50 is 5.4 nM on human CB2 receptors and 1250 nM on human CB1 receptors.

With `CCC(CC)(NC(=O)c1ccc(C2CC2)c(OCC2CC2)n1)C(=O)N1CCC1` [Example 274, 5-Cyclopropyl-6-cyclopropylmethoxy-pyridine-2-carboxylic acid [1-(azetidine-1-carbonyl)-1-ethyl-propyl]-amide], the values for the EC50 on human CB2 receptors (setting [1]) and at human CB1 receptors (setting [2]) were 1.6 nM and 351 nM, respectively.

Consider `CCC(CC)(NC(=O)c1ccc(C2CC2)c(OCC2CC2)n1)C(=O)NCCOC` [Example 275, 5-Cyclopropyl-6-cyclopropylmethoxy-pyridine-2-carboxylic acid [1-ethyl-1-(2-methoxy-ethylcarbamoyl)-propyl]-amide], for which the EC50 at human CB2 receptors (setting [1]) was 51.8 nM; at human CB1 receptors (setting [2]) it was greater than 10000 nM.

`CCN(C)C(=O)C(CC)(CC)NC(=O)c1ccc(C2CC2)c(OCC2CC2)n1` [Example 276, 5-Cyclopropyl-6-cyclopropylmethoxy-pyridine-2-carboxylic acid [1-ethyl-1-(ethyl-methyl-carbamoyl)-propyl]-amide]: the EC50 is 24.6 nM at human CB2 receptors (setting [1]) and greater than 10000 nM on human CB1 receptors (setting [2]).

Regarding `CC(C)C[C@H](NC(=O)c1cccc(Cc2ccc(F)cc2)n1)C(N)=O` [Example 277, 6-(4-Fluoro-benzyl)-pyridine-2-carboxylic acid ((S)-1-carbamoyl-3-methyl-butyl)-amide], the EC50 amounted to 16.6 nM at human CB2 receptors (setting [1]) and 1700 nM on human CB1 receptors (setting [2]).

For the compound `O=C(N[C@H](c1ccccn1)C(F)(F)F)c1cccc(Cc2ccc(F)cc2)n1` [Example 278, 6-(4-Fluoro-benzyl)-pyridine-2-carboxylic acid ((R)-2,2,2-trifluoro-1-pyridin-2-yl-ethyl)-amide], the concentration for a half-maximal effect (EC50) came to 20.2 nM at human CB2 receptors (setting [1]) and 357 nM at human CB1 receptors (setting [2]).

Take `CC(C)[C@@](C)(CO)NC(=O)c1ccc(C2CC2)c(OCC2CC2)n1` [Example 279, 5-Cyclopropyl-6-cyclopropylmethoxy-pyridine-2-carboxylic acid ((S)-1-hydroxymethyl-1,2-dimethyl-propyl)-amide]: the concentration for a half-maximal effect (EC50) was 23 nM at human CB2 receptors (setting [1]) and greater than 10000 nM at human CB1 receptors (setting [2]).

For the compound `CC1(COc2nc(C(=O)NC(C)(C)c3nccs3)ccc2Br)COC1` [Example 280, 5-Bromo-6-(3-methyl-oxetan-3-ylmethoxy)-pyridine-2-carboxylic acid (1-methyl-1-thiazol-2-yl-ethyl)-amide], the concentration for a half-maximal effect (EC50) at human CB2 receptors (setting [1]) was found to be 118 nM; on human CB1 receptors (setting [2]) it was 1490 nM.

In the case of `CC1(COc2nc(C(=O)NC3(c4nccs4)COC3)ccc2Br)COC1` [Example 281, 5-Bromo-6-(3-methyl-oxetan-3-ylmethoxy)-pyridine-2-carboxylic acid (3-thiazol-2-yl-oxetan-3-yl)-amide], the EC50 at human CB2 receptors (setting [1]) is 447 nM; on human CB1 receptors (setting [2]), greater than 10000 nM.

As to `O=C(NC1(c2nccs2)COC1)c1ccc(Br)c(OCC(F)(F)F)n1` [Example 282, 5-Bromo-6-(2,2,2-trifluoro-ethoxy)-pyridine-2-carboxylic acid (3-thiazol-2-yl-oxetan-3-yl)-amide], the half-maximal effective concentration (EC50) is 368 nM on human CB2 receptors (setting [1]) and greater than 10000 nM at human CB1 receptors (setting [2]).

`CC1(COc2nc(C(=O)NC(c3ccccn3)C(F)(F)F)ccc2Br)COC1` (stereo not shown) [Example 283, 5-Bromo-6-(3-methyl-oxetan-3-ylmethoxy)-pyridine-2-carboxylic acid (2,2,2-trifluoro-1-pyridin-2-yl-ethyl)-amide]: the EC50 was 109 nM at human CB2 receptors (setting [1]) and greater than 10000 nM at human CB1 receptors (setting [2]).

Consider `CCC(CC)(NC(=O)c1ccc(C2CC2)c(OCC2CC2)n1)C(=O)NCC1CC1` [Example 284, 5-Cyclopropyl-6-cyclopropylmethoxy-pyridine-2-carboxylic acid [1-(cyclopropylmethyl-carbamoyl)-1-ethyl-propyl]-amide], for which the EC50 on human CB2 receptors (setting [1]) was 27 nM; at human CB1 receptors (setting [2]) it was greater than 10000 nM.

On to `CC(C)(NC(=O)c1ccc(C2CC2)c(OCC2CC2)n1)c1ccccn1` [Example 285, 5-Cyclopropyl-6-cyclopropylmethoxy-pyridine-2-carboxylic acid (1-methyl-1-pyridin-2-yl-ethyl)-amide], for which the concentration for a half-maximal effect (EC50) on human CB2 receptors (setting [1]) was determined as 31.6 nM; on human CB1 receptors (setting [2]) it was 703 nM.

On to `CNC(=O)[C@H](CC(C)(C)C)NC(=O)c1cccc(Cc2ccc(F)cc2)n1` [Example 286, 6-(4-Fluoro-benzyl)-pyridine-2-carboxylic acid ((S)-3,3-dimethyl-1-methylcarbamoyl-butyl)-amide], for which the EC50 on human CB2 receptors (setting [1]) was determined as 8.2 nM; on human CB1 receptors (setting [2]) it was 1870 nM.

For the compound `CCC(CC)(NC(=O)c1ccc(C2CC2)c(OCC2CC2)n1)C(=O)N1CC(F)(F)C1` [Example 287, 5-Cyclopropyl-6-cyclopropylmethoxy-pyridine-2-carboxylic acid [1-(3,3-difluoro-azetidine-1-carbonyl)-1-ethyl-propyl]-amide], the figures for the EC50 at human CB2 receptors (setting [1]) and at human CB1 receptors (setting [2]) were 3.6 nM and greater than 10000 nM, respectively.

Turning to `CC(C)(NC(=O)c1ccc(N2CC(F)(F)C2)c(OCC(F)(F)F)n1)c1nccs1` [Example 288, 5-(3,3-Difluoro-azetidin-1-yl)-6-(2,2,2-trifluoro-ethoxy)-pyridine-2-carboxylic acid (1-methyl-4-thiazol-2-yl-ethyl)-amide], the EC50 at human CB2 receptors (setting [1]) is 163 nM; on human CB1 receptors (setting [2]), greater than 10000 nM.

With `CCOC(=O)C(CC)(CC)NC(=O)c1ccc(N2CCCC2)c(OCC2CC2)n1` [Example 289, 2-[(6-Cyclopropylmethoxy-5-pyrrolidin-1-yl-pyridine-2-carbonyl)-amino]-2-ethyl-butyric acid ethyl ester], the EC50 on human CB2 receptors (setting [1]) is 1.4 nM; on human CB1 receptors (setting [2]), 234 nM.

Source of the values: patent publication US9290451B2 (Hoffmann-La Roche Inc., priority 2011, dated 2016).
